Assay results from patent US20250275540A1, “USE OF PROTOPORPHYRINOGEN OXIDASE” (BEIJING DABEINONG BIOTECHNOLOGY CO., LTD., priority 2022, published 2025).

Tested on: transgenic maize plants
Experiment: Detection of the herbicide tolerance of the transgenic maize plants
Type: in vivo
Settings: for The grade of pesticide damage/plant: 0 / The grade of pesticide damage/plant: 1 / The grade of pesticide damage/plant: 2 / The grade of pesticide damage/plant: 3: 7 DAT
From the text: The transformed Arabidopsis thaliana T1 plants were initially selected using glufosinate herbicide. The Arabidopsis thaliana T1 plants (PPOA-01) into which the PPOA-01 nucleotide sequence was introduced, the Arabidopsis thaliana T1 plants (PPOB-01) into which the PPOB-01 nucleotide sequence was introduced, the Arabidopsis thaliana T1 plants (PPOC-01) into which the PPOC-01 nucleotide sequence was introduced, the Arabidopsis thaliana T1 plants (PPOD-01) into which the PPOD-01 nucleotide sequence was introduced, the Arabidopsis thaliana T1 plants (PPOE-01) into which the PPOE-01 nucleotide sequence was introduced, the Arabidopsis thaliana T1 plants (PPOF-01) into which the PPOF-01 nucleotide sequence was introduced, the Arabidopsis thaliana T1 plants (PPO-AP-01) into which the PPO-AP-01 nucleotide sequence was introduced, and the Arabidopsis thaliana T1 plants (control vector) into which the control vector was introduced, the wild-type Arabidopsis thaliana plants (CK) (with 24 plants being included in each genotype) (18 days after sowing) were sprayed with saflufenacil at three concentrations (25 g ai/ha (one-fold field concentration, 1×), 100 g ai/ha (four-fold field concentration, 4×), and 0 g ai/ha (water, 0×)), oxyfluorfen at three concentrations (180 g ai/ha (one-fold field concentration, 1×), 720 g ai/ha (four-fold field concentration, 4×), and 0 g ai/ha (water, 0×)), and flumioxazin at three concentrations (60 g ai/ha (one-fold field concentration, 1×), 240 g ai/ha (four-fold field concentration, 4×), and 0 g ai/ha (water, 0×) to determine the tolerance of Arabidopsis thaliana to the herbicides. After 7 days of spraying (7 DAT), the damage level of each plant caused by the herbicide was evaluated according to the average of the damage levels (%) of plants (the average of the damage levels (%) of plants=the injured leaf area/the total leaf area×100%), i.e., the grade of pesticide damage: grade 0 means that the growth status of plants is essentially consistent with those sprayed with the blank solvent (water); grade 1 means that the average of the damage levels of plants is less than 10%; grade 2 means that the average of the damage levels of plants is greater than 10%; and grade 3 means that the average of the damage levels of plants is 100%. The plants having a growth status falling within grades 0 and 1 are classified as highly resistant plants; those having a growth status falling within grade 2 are classified as poorly resistant plants; and those having a growth status falling within grade 3 are classified as non-resistant plants.
The maize plants into which the PPOA-02 nucleotide sequence was introduced, the maize plants into which the PPOB-02 nucleotide sequence was introduced, the maize plants into which the PPOC-02 nucleotide sequence was introduced, the maize plants into which the PPOD-02 nucleotide sequence was introduced, the maize plants into which the PPOE-02 nucleotide sequence was introduced, the maize plants into which the PPOF-02 nucleotide sequence was introduced, the maize plants into which the PPO-AP-02 nucleotide sequence was introduced, the maize plants (control vector) into which the control vector was introduced, and the wild-type maize plants (CK) (with 16 plants being included in each genotype) (18 days after sowing) were taken and sprayed with saflufenacil at three concentrations (50 g ai/ha (two-fold field concentration, 2×), 100 g ai/ha (four-fold field concentration, 4×), and 0 g ai/ha (water, 0×)), oxyfluorfen at three concentrations (360 g ai/ha (two-fold field concentration, 2×), 720 g ai/ha (four-fold field concentration, 4×), and 0 g ai/ha (water, 0×), and flumioxazin at three concentrations (120 g ai/ha (two-fold field concentration, 2×), 240 g ai/ha (four-fold field concentration, 4×), and 0 g ai/ha (water, 0×) to determine the tolerance of maize plants to the herbicides. […]

[1] = genotype Control vector, 360 g ai/ha
[2] = genotype Control vector, 720 g ai/ha
[3] = genotype PPO-AP-02, 360 g ai/ha
[4] = genotype PPO-AP-02, 720 g ai/ha

CCOc1cc(Oc2ccc(C(F)(F)F)cc2Cl)ccc1[N+](=O)[O-] [oxyfluorfen, 2-chloro-1-(3-ethoxy-4-nitrophenoxy)-4-trifluoromethylbenzene]
8 plant: The grade of pesticide damage/plant: 2 [3] | The grade of pesticide damage/plant: 3 [3]
15 plant: The grade of pesticide damage/plant: 0 (genotype PPOE-02, 720 g ai/ha)
about 50%: share of the plants that exhibited no tolerance (genotype PPO-AP-02, two-fold field concentration)
16 plant: The grade of pesticide damage/plant: 3 (genotype CK, 360 g ai/ha) | The grade of pesticide damage/plant: 3 (genotype CK, 720 g ai/ha) | The grade of pesticide damage/plant: 3 [1] | The grade of pesticide damage/plant: 3 [2] | The grade of pesticide damage/plant: 3 [4] | The grade of pesticide damage/plant: 0 (genotype PPOA-02, 360 g ai/ha) | The grade of pesticide damage/plant: 0 (genotype PPOA-02, 720 g ai/ha) | The grade of pesticide damage/plant: 0 (genotype PPOB-02, 360 g ai/ha) | The grade of pesticide damage/plant: 0 (genotype PPOB-02, 720 g ai/ha) | The grade of pesticide damage/plant: 0 (genotype PPOC-02, 360 g ai/ha) | The grade of pesticide damage/plant: 0 (genotype PPOC-02, 720 g ai/ha) | The grade of pesticide damage/plant: 0 (genotype PPOD-02, 360 g ai/ha) | The grade of pesticide damage/plant: 0 (genotype PPOD-02, 720 g ai/ha) | The grade of pesticide damage/plant: 0 (genotype PPOE-02, 360 g ai/ha) | The grade of pesticide damage/plant: 0 (genotype PPOF-02, 360 g ai/ha) | The grade of pesticide damage/plant: 0 (genotype PPOF-02, 720 g ai/ha)
0 plant: The grade of pesticide damage/plant: 0 (genotype CK, 360 g ai/ha) | The grade of pesticide damage/plant: 1 (genotype CK, 360 g ai/ha) | The grade of pesticide damage/plant: 2 (genotype CK, 360 g ai/ha) | The grade of pesticide damage/plant: 0 (genotype CK, 720 g ai/ha) | The grade of pesticide damage/plant: 1 (genotype CK, 720 g ai/ha) | The grade of pesticide damage/plant: 2 (genotype CK, 720 g ai/ha) | The grade of pesticide damage/plant: 0 [1] | The grade of pesticide damage/plant: 1 [1] | The grade of pesticide damage/plant: 2 [1] | The grade of pesticide damage/plant: 0 [2] | The grade of pesticide damage/plant: 1 [2] | The grade of pesticide damage/plant: 2 [2] | The grade of pesticide damage/plant: 0 [3] | The grade of pesticide damage/plant: 1 [3] | The grade of pesticide damage/plant: 0 [4] | The grade of pesticide damage/plant: 1 [4] | The grade of pesticide damage/plant: 2 [4] | The grade of pesticide damage/plant: 1 (genotype PPOA-02, 360 g ai/ha) | The grade of pesticide damage/plant: 2 (genotype PPOA-02, 360 g ai/ha) | The grade of pesticide damage/plant: 3 (genotype PPOA-02, 360 g ai/ha) | The grade of pesticide damage/plant: 1 (genotype PPOA-02, 720 g ai/ha) | The grade of pesticide damage/plant: 2 (genotype PPOA-02, 720 g ai/ha) | The grade of pesticide damage/plant: 3 (genotype PPOA-02, 720 g ai/ha) | The grade of pesticide damage/plant: 1 (genotype PPOB-02, 360 g ai/ha) | The grade of pesticide damage/plant: 2 (genotype PPOB-02, 360 g ai/ha) | The grade of pesticide damage/plant: 3 (genotype PPOB-02, 360 g ai/ha) | The grade of pesticide damage/plant: 1 (genotype PPOB-02, 720 g ai/ha) | The grade of pesticide damage/plant: 2 (genotype PPOB-02, 720 g ai/ha) | The grade of pesticide damage/plant: 3 (genotype PPOB-02, 720 g ai/ha) | The grade of pesticide damage/plant: 1 (genotype PPOC-02, 360 g ai/ha) | The grade of pesticide damage/plant: 2 (genotype PPOC-02, 360 g ai/ha) | The grade of pesticide damage/plant: 3 (genotype PPOC-02, 360 g ai/ha) | The grade of pesticide damage/plant: 1 (genotype PPOC-02, 720 g ai/ha) | The grade of pesticide damage/plant: 2 (genotype PPOC-02, 720 g ai/ha) | The grade of pesticide damage/plant: 3 (genotype PPOC-02, 720 g ai/ha) | The grade of pesticide damage/plant: 1 (genotype PPOD-02, 360 g ai/ha) | The grade of pesticide damage/plant: 2 (genotype PPOD-02, 360 g ai/ha) | The grade of pesticide damage/plant: 3 (genotype PPOD-02, 360 g ai/ha) | The grade of pesticide damage/plant: 1 (genotype PPOD-02, 720 g ai/ha) | The grade of pesticide damage/plant: 2 (genotype PPOD-02, 720 g ai/ha) | The grade of pesticide damage/plant: 3 (genotype PPOD-02, 720 g ai/ha) | The grade of pesticide damage/plant: 1 (genotype PPOE-02, 360 g ai/ha) | The grade of pesticide damage/plant: 2 (genotype PPOE-02, 360 g ai/ha) | The grade of pesticide damage/plant: 3 (genotype PPOE-02, 360 g ai/ha) | The grade of pesticide damage/plant: 2 (genotype PPOE-02, 720 g ai/ha) | The grade of pesticide damage/plant: 3 (genotype PPOE-02, 720 g ai/ha) | The grade of pesticide damage/plant: 1 (genotype PPOF-02, 360 g ai/ha) | The grade of pesticide damage/plant: 2 (genotype PPOF-02, 360 g ai/ha) | The grade of pesticide damage/plant: 3 (genotype PPOF-02, 360 g ai/ha) | The grade of pesticide damage/plant: 1 (genotype PPOF-02, 720 g ai/ha) | The grade of pesticide damage/plant: 2 (genotype PPOF-02, 720 g ai/ha) | The grade of pesticide damage/plant: 3 (genotype PPOF-02, 720 g ai/ha)
no tolerance: tolerance to the herbicide (in words) (genotype PPO-AP-02, four-fold field concentration)
1 plant: The grade of pesticide damage/plant: 1 (genotype PPOE-02, 720 g ai/ha)
high-resistant tolerance: tolerance to the herbicide (in words) (genotypes PPOA-02 to PPOF-02, four-fold field concentration) | tolerance to the herbicide (in words) (genotypes PPOA-02 to PPOF-02, two-fold field concentration)
